# Source: the supplement of paper PMC10307832
# Experiments:
# Experiment in all cases: relative viability (nuclei count vs DMSO), 5 days (fraction); higher = more cells survive
# H3255 = test system: H3255
# Procedure, shortened: (§1)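 Five library-drug doses in √10 steps were combined with a fixed anchor-drug dose, or a single drug was given alone, by pin tool to lung cancer cell lines in 1536-well plates the day after seeding. Nuclei were stained and counted after 5 days. Relative viability is the nuclei count in treated wells over that in vehicle wells, taken as the median of duplicate plates.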
# NCI-H2009 = test system: NCI-H2009
# Procedure, shortened: as §1
# NCI-H727 = test system: NCI-H727
# Procedure, shortened: as §1
# NCI-H1993 = test system: NCI-H1993
# Procedure, shortened: as §1
# EPLC-272H = test system: EPLC-272H
# Procedure, shortened: as §1
# NCI-H322M = test system: NCI-H322M
# Procedure, shortened: as §1
# NCI-H1915 = test system: NCI-H1915
# Procedure, shortened: as §1
# LXF-289 = test system: LXF-289
# Procedure, shortened: as §1
# NCI-H2023 = test system: NCI-H2023
# Procedure, shortened: as §1
# SK-LU-1 = test system: SK-LU-1
# Procedure, shortened: as §1
# NCI-H647 = test system: NCI-H647
# Procedure, shortened: as §1
# SW 1573 = test system: SW 1573
# Procedure, shortened: as §1
# NCI-H2126 = test system: NCI-H2126
# Procedure, shortened: as §1
# NCI-H1734 = test system: NCI-H1734
# Procedure, shortened: as §1
# NCI-H2085 = test system: NCI-H2085
# Procedure, shortened: as §1
# PC-14 = test system: PC-14
# Procedure, shortened: as §1
# EMC-BAC-2 = test system: EMC-BAC-2
# Procedure, shortened: as §1
# NCI-H2347 = test system: NCI-H2347
# Procedure, shortened: as §1
# HOP-62 = test system: HOP-62
# Procedure, shortened: as §1
# NCI-H661 = test system: NCI-H661
# Procedure, shortened: as §1
# LCLC-97TM1 = test system: LCLC-97TM1
# Procedure, shortened: as §1
# NCI-H1563 = test system: NCI-H1563
# Procedure, shortened: as §1
smiles,measurement,setting,value
COc1cc2nccc(Oc3ccc(NC(=O)Nc4cc(C)on4)c(Cl)c3)c2cc1OC [Tivozanib] + CS(=O)(=O)CCNCc1ccc(-c2ccc3ncnc(Nc4ccc(OCc5cccc(F)c5)c(Cl)c4)c3c2)o1 [Lapatinib] (partner 2 µM),relative viability,H3255; first compound 0.005 µM,0.247
same,relative viability,H3255; first compound 0.01581 µM,0.223
same,relative viability,H3255; first compound 0.05 µM,0.23
same,relative viability,H3255; first compound 0.1581 µM,0.232
same,relative viability,H3255; first compound 0.5 µM,0.211
same,relative viability,NCI-H2009; first compound 0.005 µM,0.88
same,relative viability,NCI-H2009; first compound 0.01581 µM,1.1
same,relative viability,NCI-H2009; first compound 0.05 µM,0.937
same,relative viability,NCI-H2009; first compound 0.1581 µM,0.896
same,relative viability,NCI-H2009; first compound 0.5 µM,0.909
same,relative viability,NCI-H727; first compound 0.005 µM,0.676
same,relative viability,NCI-H727; first compound 0.01581 µM,0.901
same,relative viability,NCI-H727; first compound 0.05 µM,0.957
same,relative viability,NCI-H727; first compound 0.5 µM,0.787
same,relative viability,NCI-H1993; first compound 0.005 µM,0.774
same,relative viability,NCI-H1993; first compound 0.01581 µM,0.775
same,relative viability,NCI-H1993; first compound 0.05 µM,0.758
same,relative viability,NCI-H1993; first compound 0.1581 µM,0.713
same,relative viability,NCI-H1993; first compound 0.5 µM,0.739
same,relative viability,EPLC-272H; first compound 0.005 µM,0.854
same,relative viability,EPLC-272H; first compound 0.01581 µM,0.844
same,relative viability,EPLC-272H; first compound 0.05 µM,0.938
same,relative viability,EPLC-272H; first compound 0.1581 µM,0.806
same,relative viability,EPLC-272H; first compound 0.5 µM,0.671
same,relative viability,NCI-H322M; first compound 0.005 µM,0.574
same,relative viability,NCI-H322M; first compound 0.01581 µM,0.649
same,relative viability,NCI-H322M; first compound 0.05 µM,0.615
same,relative viability,NCI-H322M; first compound 0.1581 µM,0.525
same,relative viability,NCI-H322M; first compound 0.5 µM,0.65
same,relative viability,NCI-H1915; first compound 0.005 µM,0.992
same,relative viability,NCI-H1915; first compound 0.01581 µM,0.928
same,relative viability,NCI-H1915; first compound 0.05 µM,0.946
same,relative viability,NCI-H1915; first compound 0.1581 µM,0.965
same,relative viability,NCI-H1915; first compound 0.5 µM,0.882
same,relative viability,LXF-289; first compound 0.005 µM,0.888
same,relative viability,LXF-289; first compound 0.01581 µM,0.886
same,relative viability,LXF-289; first compound 0.05 µM,0.902
same,relative viability,LXF-289; first compound 0.1581 µM,0.946
same,relative viability,LXF-289; first compound 0.5 µM,0.905
same,relative viability,NCI-H2023; first compound 0.005 µM,0.731
same,relative viability,NCI-H2023; first compound 0.01581 µM,0.97
same,relative viability,NCI-H2023; first compound 0.05 µM,0.878
same,relative viability,NCI-H2023; first compound 0.1581 µM,0.634
same,relative viability,NCI-H2023; first compound 0.5 µM,0.768
same,relative viability,SK-LU-1; first compound 0.005 µM,0.827
same,relative viability,SK-LU-1; first compound 0.01581 µM,0.809
same,relative viability,SK-LU-1; first compound 0.05 µM,0.895
same,relative viability,SK-LU-1; first compound 0.1581 µM,0.704
same,relative viability,SK-LU-1; first compound 0.5 µM,0.738
same,relative viability,NCI-H647; first compound 0.005 µM,0.935
same,relative viability,NCI-H647; first compound 0.01581 µM,0.971
same,relative viability,NCI-H647; first compound 0.05 µM,0.98
same,relative viability,NCI-H647; first compound 0.1581 µM,0.866
same,relative viability,NCI-H647; first compound 0.5 µM,0.966
same,relative viability,SW 1573; first compound 0.005 µM,0.909
same,relative viability,SW 1573; first compound 0.01581 µM,1.25
same,relative viability,SW 1573; first compound 0.05 µM,1.16
same,relative viability,SW 1573; first compound 0.1581 µM,0.856
same,relative viability,SW 1573; first compound 0.5 µM,1.08
same,relative viability,NCI-H2126; first compound 0.005 µM,0.686
same,relative viability,NCI-H2126; first compound 0.01581 µM,0.784
same,relative viability,NCI-H2126; first compound 0.05 µM,0.755
same,relative viability,NCI-H2126; first compound 0.1581 µM,0.559
same,relative viability,NCI-H2126; first compound 0.5 µM,0.774
same,relative viability,NCI-H1734; first compound 0.005 µM,1.03
same,relative viability,NCI-H1734; first compound 0.01581 µM,1.05
same,relative viability,NCI-H1734; first compound 0.05 µM,1.17
same,relative viability,NCI-H1734; first compound 0.1581 µM,0.814
same,relative viability,NCI-H1734; first compound 0.5 µM,1.01
same,relative viability,NCI-H2085; first compound 0.005 µM,0.66
same,relative viability,NCI-H2085; first compound 0.01581 µM,0.769
same,relative viability,NCI-H2085; first compound 0.05 µM,0.774
same,relative viability,NCI-H2085; first compound 0.1581 µM,0.579
same,relative viability,NCI-H2085; first compound 0.5 µM,0.627
same,relative viability,PC-14; first compound 0.005 µM,0.245
same,relative viability,PC-14; first compound 0.01581 µM,0.325
same,relative viability,PC-14; first compound 0.05 µM,0.308
same,relative viability,PC-14; first compound 0.1581 µM,0.255
same,relative viability,PC-14; first compound 0.5 µM,0.332
same,relative viability,EMC-BAC-2; first compound 0.005 µM,0.954
same,relative viability,EMC-BAC-2; first compound 0.01581 µM,0.875
same,relative viability,EMC-BAC-2; first compound 0.05 µM,0.871
same,relative viability,EMC-BAC-2; first compound 0.1581 µM,0.675
same,relative viability,EMC-BAC-2; first compound 0.5 µM,0.908
same,relative viability,NCI-H2347; first compound 0.005 µM,0.881
same,relative viability,NCI-H2347; first compound 0.01581 µM,0.93
same,relative viability,NCI-H2347; first compound 0.05 µM,0.963
same,relative viability,NCI-H2347; first compound 0.1581 µM,1.11
same,relative viability,NCI-H2347; first compound 0.5 µM,0.907
same,relative viability,HOP-62; first compound 0.005 µM,0.932
same,relative viability,HOP-62; first compound 0.01581 µM,0.944
same,relative viability,HOP-62; first compound 0.05 µM,0.994
same,relative viability,HOP-62; first compound 0.1581 µM,0.787
same,relative viability,HOP-62; first compound 0.5 µM,0.87
same,relative viability,NCI-H661; first compound 0.005 µM,0.436
same,relative viability,NCI-H661; first compound 0.01581 µM,0.495
same,relative viability,NCI-H661; first compound 0.05 µM,0.46
same,relative viability,NCI-H661; first compound 0.1581 µM,0.496
same,relative viability,NCI-H661; first compound 0.5 µM,0.553
same,relative viability,LCLC-97TM1; first compound 0.005 µM,0.948
same,relative viability,LCLC-97TM1; first compound 0.01581 µM,1.23
same,relative viability,LCLC-97TM1; first compound 0.1581 µM,0.807
same,relative viability,LCLC-97TM1; first compound 0.5 µM,0.821
same,relative viability,NCI-H1563; first compound 0.005 µM,0.848
same,relative viability,NCI-H1563; first compound 0.01581 µM,0.985
same,relative viability,NCI-H1563; first compound 0.05 µM,0.938
same,relative viability,NCI-H1563; first compound 0.1581 µM,0.856
same,relative viability,NCI-H1563; first compound 0.5 µM,0.796
